Measurements as given in patent US20220351806A1, “Biomarker Panels for Guiding Dysregulated Host Response Therapy” (Endpoint Health Inc., priority 2019, published 2022).

System: sepsis patients
Test: VANISH trial survival analysis, hydrocortisone vs placebo, by patient subtype classifier
Assay type: in vivo, human
Set-up: mortality reduction in the placebo group in comparison to the hydrocortisone group / Mortality rate: concentration or dose not given beside the values
Settings: for Mortality reduction: Hydro vs Placebo; for hydro_alive / hydro_dead / mr: SS.B2 Model; for mr: 28-day mortality reduction hydro vs placebo; for Alive / Dead / Mortality rate / Survival rate: Hydro group
Text: The test expression data from each trial were normalized by the platform normalization matrix described above^13 so that the test data were more consistent with the training data. The classifiers (e.g., the Full Model, the SS Model, the S Model, and the P Model) were then applied to the normalized data such that the patients were classified into A, B, and C subtypes. […] Therefore, each sample in the target samples was normalized independently with the normalization matrix of the sample array platform.
Survival and mortality rates were calculated at day 28 because survival and mortality labels at other time points were not available. […] Binomial and Chi-squared with continuity correction tests were used to test for the significance of these differences.
In one example, previously identified subtypes of sepsis patients were used to tune the model to identify these type A and B patients. Two distinct sepsis response signatures (SRS1 and SRS2) were identified in five public studies (E-MTAB-4421, E-MTAB-4451, E-MTAB-5273, E-MTAB-5274, and E-MTAB-7581), where HumanHT-12 v4 BeadChip were used to generate the gene expression profiles of the patient samples. The processed data of those five studies were downloaded and processed using R programming language and software environment for statistical analysis (version 3.6.3). The Bioconductor annotation package, illuminaHumanv4.db (version 1.26.0), was used to annotate microarray probes and expression levels of genes were determined by each individual probe or mean of probes belonging to the same gene. In order to remove cohort biases, the Bioconductor package, limma (version 3.42.2), was used to remove batch effects. Using ss.b2 panel genes, subtype A, B, and C scores were calculated by geometric mean of up/down genes.
To build the classifier, we defined E-MTAB-4421, E-MTAB-4451, E-MTAB-5273, and E-MTAB-5274 as the training dataset and VANISH (E-MTAB-7581) as the testing dataset. We used features (subtype A, B, and C scores) and class labels (SRS1 vs SRS2) in the training dataset to build a machine-learned classifier based on support-vector machine (SVM) method. SVM is a supervised machine learning method for classification analysis. The algorithm finds a single or a set of hyperplanes that maximize the margin among subtype A, B, and C scores. In order to capture non-linear data, the kernel function was used. R package e1071 was used to build the SVM classifier with following parameters: method=“C-classification”, kernal=“radial”, gamma=0.1, and cost=10.
The accuracy of the classifiers was evaluated by Leave-One-Out (LOO) cross-validation over the training dataset. Also the classifier was applied to 117 controlled samples from VANISH trial.
In addition to the SVM-method, thresholds can be employed to scores in order to define A vs. B labels. […] Therefore we applied a heuristic threshold (threshold=0) to subtype A and B scores to classify SRS1-like and SRS2-like in VANISH: SRS2-like label was assigned to samples with subtype A score >0 and subtype B score <0 and SRS1-like label was assigned to the rest of samples.
Besides the heuristic threshold, we also derived the thresholds for subtype A and B scores using the training dataset. Same as the SVM method, we defined E-MTAB-4421, E-MTAB-4451, E-MTAB-5273, and E-MTAB-5274 as the training dataset and VANISH (E-MTAB-7581) as the testing dataset.

[1] = class A, A score cutoff 0.0000, B score cutoff 0.0000, accuracy in training set 0.74830, 76.07% of patients
[2] = class A, A score cutoff 0.0000, B score cutoff 0.0000, accuracy in training set 0.74830, 76.92% of patients
[3] = class A, A score cutoff 0.0000, B score cutoff 0.0000, accuracy in training set 0.75283, 76.92% of patients
[4] = class A, A score cutoff 0.0000, B score cutoff 0.0000, accuracy in training set 0.75283, 82.91% of patients
[5] = class A, A score cutoff 0.0000, B score cutoff 0.0000, accuracy in training set 0.76871, 62.39% of patients
[6] = class A, A score cutoff 0.0000, B score cutoff 0.0000, accuracy in training set 0.76871, 76.92% of patients
[7] = class A, A score cutoff −0.0406, B score cutoff 0.1067, accuracy in training set 0.79592, 58.12% of patients
[8] = class A, A score cutoff −0.0406, B score cutoff 0.1067, accuracy in training set 0.79592, 74.36% of patients
[9] = class A, A score cutoff −0.1277, B score cutoff 0.3630, accuracy in training set 0.83673, 60.68% of patients
[10] = class A, A score cutoff −0.1277, B score cutoff 0.3630, accuracy in training set 0.83673, 70.09% of patients
[11] = class A, A score cutoff −0.2664, B score cutoff 0.3179, accuracy in training set 0.82483, 58.12% of patients
[12] = class A, A score cutoff −0.2664, B score cutoff 0.3179, accuracy in training set 0.82483, 60.68% of patients
[13] = class B, A score cutoff 0.0000, B score cutoff 0.0000, accuracy in training set 0.74830, 23.08% of patients
[14] = class B, A score cutoff 0.0000, B score cutoff 0.0000, accuracy in training set 0.74830, 23.93% of patients
[15] = class B, A score cutoff 0.0000, B score cutoff 0.0000, accuracy in training set 0.75283, 17.09% of patients
[16] = class B, A score cutoff 0.0000, B score cutoff 0.0000, accuracy in training set 0.75283, 23.08% of patients
[17] = class B, A score cutoff 0.0000, B score cutoff 0.0000, accuracy in training set 0.76871, 23.08% of patients
[18] = class B, A score cutoff 0.0000, B score cutoff 0.0000, accuracy in training set 0.76871, 37.61% of patients
[19] = class B, A score cutoff −0.0406, B score cutoff 0.1067, accuracy in training set 0.79592, 25.64% of patients
[20] = class B, A score cutoff −0.0406, B score cutoff 0.1067, accuracy in training set 0.79592, 41.88% of patients
[21] = class B, A score cutoff −0.1277, B score cutoff 0.3630, accuracy in training set 0.83673, 29.91% of patients
[22] = class B, A score cutoff −0.2664, B score cutoff 0.3179, accuracy in training set 0.82483, 39.32% of patients
[23] = class B, A score cutoff −0.2664, B score cutoff 0.3179, accuracy in training set 0.82483, 41.88% of patients
[24] = VANISH trial, day 28, Full Model, Total
[25] = VANISH trial, day 28, Full Model, subtype A
[26] = VANISH trial, day 28, Full Model, subtype B

Compound: C[C@]12CCC(=O)C=C1CC[C@@H]1[C@@H]2[C@@H](O)C[C@@]2(C)[C@H]1CC[C@]2(O)C(=O)CO [Hydro, hydrocortisone]
- Mortality reduction (1-(lower/higher mortality rate), VANISH trial, day 28, Full Model, Total): 33.0%
- Mortality reduction (1-(lower/higher mortality rate), VANISH trial, day 28, Full Model, subtype A): 64.6%
- Mortality reduction (1-(lower/higher mortality rate), VANISH trial, day 28, Full Model, subtype B): 35.2%
- Mortality reduction (1-(lower/higher mortality rate), VANISH trial, day 28, Full Model, subtype C): 56.8%
- Mortality reduction (1-(lower/higher mortality rate), VANISH trial, day 28, Full Model, subtypes CA): 60.6%
- Mortality reduction (1-(lower/higher mortality rate), VANISH trial, day 28, P Model, Total): 33.0%
- Mortality reduction (1-(lower/higher mortality rate), VANISH trial, day 28, P Model, subtype A): 77.6%
- Mortality reduction (1-(lower/higher mortality rate), VANISH trial, day 28, P Model, subtype B): 9.7%
- Mortality reduction (1-(lower/higher mortality rate), VANISH trial, day 28, P Model, subtypes CA): 56.5%
- Mortality reduction (1-(lower/higher mortality rate), VANISH trial, day 28, SS Model, Total): 33.0%
- Mortality reduction (1-(lower/higher mortality rate), VANISH trial, day 28, SS Model, subtype A): 86.0%
- Mortality reduction (1-(lower/higher mortality rate), VANISH trial, day 28, SS Model, subtype B): 20.0%
- Mortality reduction (1-(lower/higher mortality rate), VANISH trial, day 28, SS Model, subtype C): 4.0%
- Mortality reduction (1-(lower/higher mortality rate), VANISH trial, day 28, SS Model, subtypes CA): 42.2%
- Mortality reduction (1-(lower/higher mortality rate), VANISH trial, day 28, SS.B2 Model (SVM), Total): 33.0%
- Mortality reduction (1-(lower/higher mortality rate), VANISH trial, day 28, SS.B2 Model (SVM), type A (SRS2-like)): 77.3%
- Mortality reduction (1-(lower/higher mortality rate), VANISH trial, day 28, SS.B2 Model (SVM), type B (SRS1-like)): 24.2%
- Mortality reduction (VANISH trial, day 28, S Model, subtype C): Hydro
- Mortality reduction (VANISH trial, day 28, S Model, subtypes CA): Hydro
- hydro_alive [1]: 29
- hydro_dead [1]: 13
- mr [1]: 3.8%
- hydro_alive [2]: 29
- hydro_dead [2]: 13
- mr [2]: 5.8%
- hydro_alive [3]: 29
- hydro_dead [3]: 13
- mr [3]: 5.8%
- hydro_alive [4]: 32
- hydro_dead [4]: 15
- mr [4]: 12.3%
- hydro_alive [5]: 21
- hydro_dead [5]: 12
- mr [5]: 3.8%
- hydro_alive [6]: 29
- hydro_dead [6]: 13
- mr [6]: 5.8%
- hydro_alive [7]: 21
- hydro_dead [7]: 12
- mr [7]: 2.1%
- hydro_alive [8]: 29
- hydro_dead [8]: 13
- mr [8]: 0.5%
- hydro_alive [9]: 25
- hydro_dead [9]: 11
- mr [9]: 17.7%
- hydro_alive [10]: 28
- hydro_dead [10]: 13
- mr [10]: 0.0%
- hydro_alive [11]: 23
- hydro_dead [11]: 11
- mr [11]: 15.4%
- hydro_alive [12]: 24
- hydro_dead [12]: 12
- mr [12]: 10.3%
- hydro_alive [13]: 7
- hydro_dead [13]: 9
- mr [13]: 83.8%
- hydro_alive [14]: 7
- hydro_dead [14]: 9
- mr [14]: 85.2%
- hydro_alive [15]: 4
- hydro_dead [15]: 7
- mr [15]: 82.5%
- hydro_alive [16]: 7
- hydro_dead [16]: 9
- mr [16]: 83.8%
- hydro_alive [17]: 7
- hydro_dead [17]: 9
- mr [17]: 83.8%
- hydro_alive [18]: 15
- hydro_dead [18]: 10
- mr [18]: 86.8%
- hydro_alive [19]: 7
- hydro_dead [19]: 9
- mr [19]: 87.3%
- hydro_alive [20]: 15
- hydro_dead [20]: 10
- mr [20]: 79.2%
- hydro_alive [21]: 8
- hydro_dead [21]: 9
- mr [21]: 79.0%
- mr (class B, A score cutoff −0.1277, B score cutoff 0.3630, accuracy in training set 0.83673, 39.32% of patients): 83.3%
- hydro_alive [22]: 12
- hydro_dead [22]: 10
- mr [22]: 81.7%
- hydro_alive [23]: 13
- hydro_dead [23]: 11
- mr [23]: 82.5%
- mortality reduction in the placebo group in comparison to the hydrocortisone group (VANISH trial, 28-day, Type-A (SRS2-like) patients by SVM classifier on ss.b2 scores): 75.5%
- Alive [24]: 36
- Dead [24]: 22
- Mortality rate [24]: 37.9%
- Survival rate [24]: 62.1%
- Alive [25]: 9
- Dead [25]: 8
- Mortality rate [25]: 47.1%
- Survival rate [25]: 52.9%
- Alive [26]: 16
- Dead [26]: 6
- Mortality rate [26]: 27.3%
- Survival rate [26]: 72.7%
